Experimental data taken from patent US20260265265A1, “NOVEL BENZIMIDAZOLONE DERIVATIVE COMPOUND AS AUTOTAXIN INHIBITOR” (LG CHEM, LTD., priority 2023, published 2026).
pIC50: −log10 of the molar value.

Target: T1, Recombinant Human ENPP-2/Autotaxin (Homo sapiens, UniProt Q13822)
T1 construct: purchased R&D systems 5255-EN
Assay: LysoPLD activity measurement (autotaxin enzyme inhibition, choline release, TOOS reagent)
Assay type: biochemical
Details: LysoPLD inhibitory activity; substrate 14:0 LysoPC; absorbance at 555 nm
Method: Such a measurement method is a method of measuring the amount of choline, which is a reaction product in an autotaxin enzyme reaction, using a TOOS reagent. Depending on the activity of the autotaxin inhibitor, the amount of choline produced as a reaction product varies, which affects the final absorbance.
After 30 min, 14:0 LysoPC of the substrate diluted to a concentration of 300 μM with the enzyme reaction buffer solution was dispensed into each well by 50 μL and allowed to stand at 37° C. for 90 minutes. At this time, negative control wells were dispensed with 1% DMSO, substrate, and autotaxin instead of the compound, and positive control wells were dispensed with 1% DMSO and substrate.

SMILES | pIC50
CC1(C)CC=C(c2ccc(-n3c(=O)n(Cc4cccc(C(=O)O)c4F)c4ccc(Cl)cc43)cc2)CC1 [Example 112, 3-((5-chloro-3-(4′,4′-dimethyl-2′,3′,4′,5′-tetrahydro-[1,1′-biphenyl]-4-yl)-2-oxo-2,3-dihydro-1H-benzo[d]imidazol-1-yl)methyl)-2-fluorobenzoic acid] | 6.00 to 7.00
O=C(O)c1cc(F)cc(C2(n3c(=O)n(-c4ccc(C5CCOCC5)nc4)c4cc(Cl)ccc43)CC2)c1 [Example 262, 3-(1-(5-chloro-2-oxo-3-(6-(tetrahydro-2H-pyran-4-yl)pyridin-3-yl)-2,3-dihydro-1H-benzo[d]imidazol-1-yl)cyclopropyl)-5-fluorobenzoic acid] | 7.00 to 8.00
CN(C)c1ccc(-n2c(=O)n(C3(c4cccc(C(=O)O)c4)CC3)c3ccc(C(F)(F)F)cc32)cc1 [Example 206, 3-(1-(3-(4-(dimethylamino)phenyl)-2-oxo-5-(trifluoromethyl)-2,3-dihydro-1H-benzo[d]imidazol-1-yl)cyclopropyl)benzoic acid] | 7.00 to 8.00
O=C(O)c1c(F)ccc(Cn2c(=O)n(-c3ccc(N4CCOCC4)cc3)c3cc(Cl)ccc32)c1F [Example 205, 3-((5-chloro-3-(4-morpholinophenyl)-2-oxo-2,3-dihydro-1H-benzo[d]imidazol-1-yl)methyl)-2,6-difluorobenzoic acid] | 7.00 to 8.00
CC1(C)Cc2cc(-n3c(=O)n(Cc4cccc(C(=O)O)c4)c4ccc(Cl)cc43)ccc2C1=O [Example 115, 3-((5-chloro-3-(2,2-dimethyl-1-oxo-2,3-dihydro-1H-inden-5-yl)-2-oxo-2,3-dihydro-1H-benzo[d]imidazol-1-yl)methyl)benzoic acid] | 6.00 to 7.00
CN(C)c1ccc(-n2c(=O)n(Cc3cccc(C(=O)O)c3)c3ccc(Cl)cc32)cc1 [Example 10, 3-((5-chloro-3-(4-(dimethylamino)phenyl)-2-oxo-2,3-dihydro-1H-benzo[d]imidazol-1-yl)methyl)benzoic acid] | 7.00 to 8.00
C[C@H]1CN(C(=O)Cc2ccc(-n3c(=O)n(C4(c5cccc(C(=O)O)c5)CC4)c4ccc(Cl)cc43)cc2)CCO1 [Example 176, (S)-3-(1-(5-chloro-3-(4-(2-(2-methylmorpholino)-2-oxoethyl)phenyl)-2-oxo-2,3-dihydro-1H-benzo[d]imidazol-1-yl)cyclopropyl)benzoic acid] | 7.00 to 8.00
O=C(O)c1cccc(C2(n3c(=O)n(-c4ccc(CN5CCOCC5)cc4)c4cc(Cl)ccc43)CC2)c1 [Example 145, 3-(1-(5-chloro-3-(4-(morpholinomethyl)phenyl)-2-oxo-2,3-dihydro-1H-benzo[d]imidazol-1-yl)cyclopropyl)benzoic acid] | 7.00 to 8.00
O=C(O)c1cccc(C2(n3c(=O)n(-c4ccc(S(=O)(=O)NCC5CCC5)cc4)c4cc(Cl)ccc43)CC2)c1 [Example 213, 3-(1-(5-chloro-3-(4-(N-(cyclobutylmethyl)sulfamoyl)phenyl)-2-oxo-2,3-dihydro-1H-benzo[d]imidazol-1-yl)cyclopropyl)benzoic acid] | 7.00 to 8.00
O=C(O)c1cccc(C2(n3c(=O)n(-c4ccc(N5CC6CCC(C5)O6)cc4)c4cc(Cl)ccc43)CC2)c1 [Example 182, 3-(1-(3-(4-(8-oxa-3-azabicyclo[3.2.1]octan-3-yl)phenyl)-5-chloro-2-oxo-2,3-dihydro-1H-benzo[d]imidazol-1-yl)cyclopropyl)benzoic acid] | > 8.00
CCCc1ccc(-n2c(=O)n(C3(c4cccc(C(=O)O)c4)CC3)c3ccc(Cl)cc32)cc1 [Example 31, 3-(1-(5-chloro-2-oxo-3-(4-propylphenyl)-2,3-dihydro-1H-benzo[d]imidazol-1-yl)cyclopropyl)benzoic acid] | 7.00 to 8.00
O=C(O)c1cccc(Cn2c(=O)n(-c3ccc(OCC4CCC4)cc3)c3cc(Cl)ccc32)c1 [Example 27, 3-((5-chloro-3-(4-(cyclobutylmethoxy)phenyl)-2-oxo-2,3-dihydro-1H-benzo[d]imidazol-1-yl)methyl)benzoic acid] | 6.00 to 7.00
CS(=O)(=O)Nc1ccc(-n2c(=O)n(Cc3cccc(C(=O)O)c3)c3ccc(Cl)cc32)cc1 [Example 19, 3-((5-chloro-3-(4-(methylsulfonamido)phenyl)-2-oxo-2,3-dihydro-1H-benzo[d]imidazol-1-yl)methyl)benzoic acid] | 7.00 to 8.00
O=C(O)c1cccc(C2(n3c(=O)n(-c4ccc(N5CC6CC5CO6)cc4)c4cc(Cl)ccc43)CC2)c1 (centres unmarked) [Example 181, 3-(1-(3-(4-(2-oxa-5-azabicyclo[2.2.1]heptan-5-yl)phenyl)-5-chloro-2-oxo-2,3-dihydro-1H-benzo[d]imidazol-1-yl)cyclopropyl)benzoic acid] | > 8.00
O=C(O)c1cccc(C2(n3c(=O)n(-c4ccc(N5CC6(COC6)C5)cc4)c4cc(Cl)ccc43)CC2)c1 [Example 149, 3-(1-(3-(4-(2-oxa-6-azaspiro[3.3]heptane-6-yl)phenyl)-5-chloro-2-oxo-2,3-dihydro-1H-benzo[d]imidazol-1-yl)cyclopropyl)benzoic acid] | > 8.00

More lines, now with the values ahead:

pIC50 | SMILES
> 8.00 | O=C(O)c1cccc(Cn2c(=O)n(-c3ccc(C(=O)N4CCCC4)cc3)c3cc(Cl)ccc32)c1 [Example 45, 3-((5-chloro-2-oxo-3-(4-(pyrrolidine-1-carbonyl)phenyl)-2,3-dihydro-1H-benzo[d]imidazol-1-yl)methyl)benzoic acid]
> 8.00 | CN(C)S(=O)(=O)c1ccc(-n2c(=O)n(C3(c4cccc(C(=O)O)c4)CC3)c3ccc(Cl)cc32)cc1 [Example 210, 3-(1-(5-chloro-3-(4-(N,N-dimethylsulfamoyl)phenyl)-2-oxo-2,3-dihydro-1H-benzo[d]imidazol-1-yl)cyclopropyl)benzoic acid]
> 8.00 | CCC(=O)N1CCC(c2ccc(-n3c(=O)n(C4(c5cccc(C(=O)O)c5)CC4)c4ccc(Cl)cc43)cc2)CC1 [Example 234, 3-(1-(5-chloro-2-oxo-3-(4-(1-propionylpiperidin-4-yl)phenyl)-2,3-dihydro-1H-benzo[d]imidazol-1-yl)cyclopropyl)benzoic acid]
> 8.00 | O=C(O)c1cccc(C2(n3c(=O)n(-c4ccc(N5CCCC5)cc4)c4cc(Cl)ccc43)CC2)c1 [Example 146, 3-(1-(5-chloro-2-oxo-3-(4-(pyrrolidin-1-yl)phenyl)-2,3-dihydro-1H-benzo[d]imidazol-1-yl)cyclopropyl)benzoic acid]
> 8.00 | O=C(O)c1cc(F)cc(C2(n3c(=O)n(-c4ccc(N5CCOCC5)cc4)c4cc(Cl)cnc43)CC2)c1 [Example 274, 3-(1-(6-chloro-1-(4-morpholinophenyl)-2-oxo-1,2-dihydro-3H-imidazo[4,5-b]pyridin-3-yl)cyclopropyl)-5-fluorobenzoic acid]
> 8.00 | C[C@@H]1CN(C(=O)Cc2ccc(-n3c(=O)n(C4(c5cccc(C(=O)O)c5)CC4)c4ccc(Cl)cc43)cc2)CCO1 [Example 175, (R)-3-(1-(5-chloro-3-(4-(2-(2-methylmorpholino)-2-oxoethyl)phenyl)-2-oxo-2,3-dihydro-1H-benzo[d]imidazol-1-yl)cyclopropyl)benzoic acid]
> 8.00 | C[C@H]1COCCN1C(=O)c1ccc(-n2c(=O)n(C3(c4cccc(C(=O)O)c4)CC3)c3ccc(Cl)cc32)cc1 [Example 127, (S)-3-(1-(5-chloro-3-(4-(3-methylmorpholine-4-carbonyl)phenyl)-2-oxo-2,3-dihydro-1H-benzo[d]imidazol-1-yl)cyclopropyl)benzoic acid]
> 8.00 | CN(C)C(=O)c1ccc(-n2c(=O)n(C3(c4cccc(C(=O)O)c4)CC3)c3ncc(Cl)cc32)cc1 [Example 223, 3-(1-(6-chloro-1-(4-(dimethylcarbamoyl)phenyl)-2-oxo-1,2-dihydro-3H-imidazo[4,5-b]pyridin-3-yl)cyclopropyl)benzoic acid]
> 8.00 | O=C(O)c1cccc(C2(n3c(=O)n(-c4ccc(C(=O)N5CC6(CCOCC6)C5)cc4)c4cc(Cl)ccc43)CC2)c1F [Example 107, 3-(1-(3-(4-(7-oxa-2-azaspiro[3.5]nonane-2-carbonyl)phenyl)-5-chloro-2-oxo-2,3-dihydro-1H-benzo[d]imidazol-1-yl)cyclopropyl)-2-fluorobenzoic acid]
> 8.00 | O=C(O)c1cccc(C2(n3c(=O)n(-c4ccc(N5CCOCC5)cc4)c4cc(Cl)cnc43)CC2)c1 [Example 222, 3-(1-(6-chloro-1-(4-morpholinophenyl)-2-oxo-1,2-dihydro-3H-imidazo[4,5-b]pyridin-3-yl)cyclopropyl)benzoic acid]
> 8.00 | O=C(O)c1cccc(C2(n3c(=O)n(-c4ccc(C(=O)N5CC6(CCOCC6)C5)cc4)c4cc(Cl)ccc43)CC2)c1 [Example 93, 3-(1-(3-(4-(7-oxa-2-azaspiro[3.5]nonane-2-carbonyl)phenyl)-5-chloro-2-oxo-2,3-dihydro-1H-benzo[d]imidazol-1-yl)cyclopropyl)benzoic acid]
> 8.00 | O=C(O)c1cccc(C2(n3c(=O)n(-c4ccc(C(=O)N5CCC(F)(F)C5)cc4)c4cc(Cl)ccc43)CC2)c1F [Example 132, 3-(1-(5-chloro-3-(4-(3,3-difluoropyrrolidine-1-carbonyl)phenyl)-2-oxo-2,3-dihydro-1H-benzo[d]imidazol-1-yl)cyclopropyl)-2-fluorobenzoic acid]
> 8.00 | O=C(O)c1cccc(C2(n3c(=O)n(-c4ccc(C5CCOCC5)cc4)c4cc(Cl)cnc43)CC2)c1 [Example 220, 3-(1-(6-chloro-2-oxo-1-(4-(tetrahydro-2H-pyran-4-yl)phenyl)-1,2-dihydro-3H-imidazo[4,5-b]pyridin-3-yl)cyclopropyl)benzoic acid]
> 8.00 | O=C(O)c1cccc(C2(n3c(=O)n(-c4ccc(S(=O)(=O)N5CCCC5)cc4)c4cc(Cl)ccc43)CC2)c1 [Example 215, 3-(1-(5-chloro-2-oxo-3-(4-(pyrrolidin-1-ylsulfonyl)phenyl)-2,3-dihydro-1H-benzo[d]imidazol-1-yl)cyclopropyl)benzoic acid]
